Experimental data taken from publication PMC10578927, “An unconventional gatekeeper mutation sensitizes inositol hexakisphosphate kinases to an allosteric inhibitor” (eLife, 2023).
Each block holds one compound with its values, some of them ahead of it.

Key:
[1] = molecular target: T1, IP6K1^L210V (Homo sapiens, UniProt Q92551, L210V); assay: NMR activity assay, [13C6]-InsP6 to 5PP-InsP5, with ATP-regenerating system; type: biochemical; conditions: for inhibition of IP6K1^L210V: 10 µM concentration
T1 construct: made in house; host or cells: E. coli Arctic Express
Excerpt: (§1) The gatekeeper mutants L210G and L210A of IP6K1 were generated by site-directed mutagenesis and the enzymes were recombinantly expressed, analogous to the WT kinase, as MBP-fusion proteins. To assess their catalytic activity, we used an NMR assay that harnesses fully ^13C-labeled InsP6 as a substrate and enables direct product readout of 5PP-InsP5 (Figure 2b and Figure 2—figure supplement 1; [Puschmann et al., 2019]; [Harmel et al., 2019]). […] Likewise, IP6K2 suffered a drastic decline in substrate turnover upon gatekeeper mutation to glycine (Figure 2—figure supplement 2).
(§2) The NMR assay for IP6K activity was performed similarly as described before ([Harmel et al., 2019]) with slight alterations. Enzyme assays were performed in D2O in a total volume of 150 µl containing 20 mM 4-(2-hydroxyethyl)-1-piperazineethanesulfonic acid (HEPES) pH* 6.8, 50 mM NaCl, 6 mM MgCl2, 1 mM ATP, 0.2 mg/ml BSA, 1 mM DTT, 5 mM creatine phosphate and 1 U/ml creatine kinase (ATP-regenerating system) and 50 nM kinase if not otherwise stated. HEPES, NaCl, and BSA were prepared as buffer A and DTT and creatine phosphate as buffer B in D2O and were adjusted to pH* 6.8, respectively. If applicable, inhibitor was added as a DMSO-d6 stock in a twofold dilution series at a final DMSO concentration of 1% if not otherwise mentioned. Otherwise, DMSO-d6 was added to the same percentage. The samples were equilibrated at 37°C for 3 min and the reaction initiated by adding 100 µM [^13C6]-InsP6.

[2] = molecular target: T2, IP6K1^wt (Homo sapiens, UniProt Q92551); assay: Michaelis–Menten and Lineweaver–Burk kinetics (NMR); type: biochemical
T2 construct: made in house; host or cells: E. coli Arctic Express
Protocol: (§3) Kinetic assays were performed in D2O in a total volume of 500 µl containing the same buffer components for IP6K and IP6KA constructs as stated for the NMR activity assays above. […] If applicable, inhibitor was added as a DMSO-d6 stock at a final DMSO concentration of 1%. Otherwise, DMSO-d6 was added to the same percentage. The samples were equilibrated at 37°C for 5 min and the reaction initiated by adding 100 µM [^13C6]-InsP6. The reaction time was adjusted so that conversion would not exceed 20% to remain in the linear range for initial velocity measurements. The reaction was quenched with 38 µl 700 mM EDTA pH* 8.0 and transferred into an NMR tube before being measured on a Bruker […] 600 PLUS with an NMR pulse program developed previously ([Harmel et al., 2019]). Initial velocities were calculated by dividing the amount of generated product by the product of reaction time in seconds and mass of the kinase in mg.

[3] = test system: IP6K; conditions: Figure 1b; ref Padmanabhan et al., 2009 (TNP); Wormald et al., 2019 (Barrow-24); Moritoh et al., 2021; Terao et al., 2018 (SC-919); cited from earlier work
[4] = molecular target: T2, IP6K1^wt; assay: NMR activity assay, [13C6]-InsP6 to 5PP-InsP5, with ATP-regenerating system; type: biochemical
Excerpt: as §1, §2

[5] = molecular target: T1, IP6K1^L210V; assay: Michaelis–Menten and Lineweaver–Burk kinetics (NMR); type: biochemical; conditions: Michaelis–Menten, read-out: KM for ATP
Protocol: as §3

[6] = molecular target: T1, IP6K1^L210V; assay: High-throughput screen, reverse kinase reaction (5PP-InsP5 + ADP), Kinase-Glo luminescence; type: biochemical
Excerpt: Although the NMR assay described above provides direct product detection and the ability to distinguish the PP-InsP isomers ([Harmel et al., 2019]), it is inherently slow and thus not compatible with a high-throughput screen. The use of luminescence-based readouts of ATP consumption to measure IP6K activity is error-prone due to the kinase’s unusually low affinity for ATP, the sensitivity to the ATP/ADP ratio, and its inherent ATPase activity ([Wundenberg et al., 2014]; [Voglmaier et al., 1996]). Nevertheless, we were able to take advantage of these properties by examining the reverse reaction of IP6K1 with the Kinase-Glo assay, where 5PP-InsP5 and ADP are converted to InsP6 and ATP (Figure 3a).
The following solutions were prepared as 4× stock solutions: kinase buffer (HEPES pH 7.4, NaCl, BSA, MgCl2, Tween-20, DTT, and IP6K1^L210V), DMSO/inhibitor, ADP, and 5PP-InsP5. Final concentrations after optimization were 1 mM ADP, 20 mM HEPES, 50 mM NaCl, 0.2 mg/ml BSA, 2 mM MgCl2, 0.05% Tween-20, 1 mM DTT, 250 nM IP6K1^L210V, and 50 μM 5PP-InsP5. The reactions were carried out in 384-well plates following this procedure. 5 µl 4× kinase buffer (buffer only for no kinase controls), 5 µl 4× DMSO or inhibitor and 5 µl 4× ADP solution were subsequently added to all wells. After 10 min equilibration, 5 μl 4× 5PP-InsP5 were added to start the reaction (milli-Q water for negative controls). After 3 hr at room temperature, 20 µl of Promega Kinase-Glo Plus reagent were added and the luminescence read out with a Tecan Infinite M Plex reader using 100-ms exposure time after 10 min of equilibration.
ADP was prepared in a 2× stock solution in milli-Q water and the pH adjusted to 7.0. The following solutions were prepared as 4× stock solutions: kinase buffer (HEPES pH 7.4, NaCl, BSA, MgCl2, Tween-20, DTT, and IP6K1^L210V) and 5PP-InsP5. Final concentrations were 1 mM ADP, 20 mM HEPES, 50 mM NaCl, 0.2 mg/ml BSA, 2 mM MgCl2, 0.05% Tween-20, 1 mM DTT, 250 nM IP6K1^L210V, and 50 µM 5PP-InsP5. The reactions were carried out in 384-well plates following this procedure. 10 µl 2× ADP solution were added to all wells, then 0.2 µl DMSO or compound (1 mM in DMSO) were added followed by the addition of 5 µl 4× kinase buffer. For dose–response curves, compounds were added in serial dilution (twofold serial dilutions in DMSO across multiple plates prior to compound transfer to assay plates, 9 concentrations in total). After 10 min equilibration, 5 µl 4× 5PP-InsP5 were added to start the reaction (milli-Q water for negative controls). After 3 hr at room temperature, 20 µl of Promega Kinase-Glo Plus reagent were added and the luminescence read out with a Tecan Infinite M Plex or Perkin Elmer EnVision reader using 100ms exposure time after 10 min of equilibration. In the counter screen, dose–response curves were measured in the absence of kinase and presence of 50 µM ATP.

[7] = test system: HEK293; assay: Cytotoxicity, cell survival after 72 hr incubation; type: cell-based; conditions: HEK293, 10 µM, 72 hr incubation
Protocol: (§4) Supplementary file elife-88982-supp2.xlsx: Supplementary file 2. Cytotoxicity of selected hits indicated by cell survival after 72 hr incubation at 10 µM concentration. All compounds were measured in independent triplicates and errors represent standard deviation. Redox activity of selected compounds measured via a photometric surrogate assay. Reactions contained 50 mM HEPES pH 7.5, 50 mM NaCl, 200 mM DTT, and 20 µM resazurin, and were incubated for 1 hr at 37°C.

[8] = test system: HepG2; assay: Cytotoxicity, cell survival after 72 hr incubation; type: cell-based; conditions: HepG2, 10 µM, 72 hr incubation
Protocol: as §4

[9] = molecular target: T2, IP6K1^wt; assay: High-throughput screen, reverse kinase reaction (5PP-InsP5 + ADP), Kinase-Glo luminescence; type: biochemical; conditions: dose-dependent reconfirmation

T2 sequence (Q92551 whole entry): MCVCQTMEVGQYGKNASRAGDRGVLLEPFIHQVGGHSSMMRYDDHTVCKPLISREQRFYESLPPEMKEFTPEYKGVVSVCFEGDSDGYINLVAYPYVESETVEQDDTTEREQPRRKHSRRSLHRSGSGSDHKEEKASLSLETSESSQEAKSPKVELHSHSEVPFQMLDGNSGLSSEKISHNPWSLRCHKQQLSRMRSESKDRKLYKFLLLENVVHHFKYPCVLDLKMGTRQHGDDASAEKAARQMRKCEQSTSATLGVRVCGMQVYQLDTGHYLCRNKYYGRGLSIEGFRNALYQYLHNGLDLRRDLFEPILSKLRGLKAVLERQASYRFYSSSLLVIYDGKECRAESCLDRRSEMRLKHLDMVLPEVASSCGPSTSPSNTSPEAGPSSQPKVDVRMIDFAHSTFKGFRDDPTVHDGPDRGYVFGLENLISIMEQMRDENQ
T1 sequence (Q92551 whole entry L210V): as the sequence (Q92551 whole entry) above, with L210V counted along it

SMILES: O=C(O)c1ccc2c(c1)C(=O)N(c1ccc(-c3nc4ccccc4[nH]3)cc1)C2=O [A2]
- inhibition of IP6K1^L210V ([1]; NMR assay): inhibited IP6K1^L210V, albeit with severely reduced potency

SMILES: O=[N+]([O-])c1ccc(CNc2nc(NCc3cccc(C(F)(F)F)c3)nc3[nH]cnc23)cc1 [TNP, N2-(m-trifluorobenzyl)-N6-(p-nitrobenzyl)purine, reference compound]
- mechanism of inhibition (Lineweaver–Burk) ([2]; versus ATP): competitive mechanism of action
- IC50 [3]: 470 nM
- IC50 ([4]; Figure 4—figure supplement 2b): 2150 nM
- difference in potency against IP6K1^wt and IP6K1^L210V ([1]; NMR IC50 curves): no significant difference in potency
- IC50 ([1]; NMR assay, Figure 4—figure supplement 2b): 1410 nM

- Km ([2]; Michaelis–Menten, read-out: KM for ATP): 186 ± 23 µM
- Km [5]: 412 ± 81 µM
SMILES: Nc1ncnc2c1ncn2[C@@H]1O[C@H](COP(=O)(O)OP(=O)(O)OP(=O)(O)O)[C@@H](O)[C@H]1O [ATP]

SMILES: Cn1c(=O)n(-c2ccc(C(C)(C)C#N)cc2)c2c3cc(-c4cnc5ccccc5c4)ccc3ncc21 [BEZ235, reference compound]
- inhibitory activity against IP6K1^wt ([4]; 10 µM concentration): none of these compounds exhibited any inhibitory activity
- inhibition of IP6K1^L210V ([1]; NMR assay): inhibition of IP6K1^L210V was not observed either

- inhibition of IP6K1^L210V ([1]; NMR assay): completely inactive
SMILES: O=C1c2ccccc2C(=O)N1c1ccc(-c2nc3ccc(N4C(=O)c5ccccc5C4=O)cc3[nH]2)cc1 [A1]

SMILES: O=c1c(O)c(-c2ccc(O)c(O)c2)oc2cc(O)cc(O)c12 [compound 405356, quercetin, reference compound]
- IC50 ([6]; Kinase-Glo, reverse reaction, dose-dependent reconfirmation): 2860 nM
- Z-score ([6]; primary screen, IP6K1^L210V): -14.6
- %Activity ([6]; primary screen, residual activity of IP6K1^L210V): 7.8%
- Cell number (%) [7]: 104.0 ± 1.4%
- Cell number (%) [8]: 65.9 ± 16.9%
- IC50 [9]: 12.1 µM
